Drawing on PubChem BioAssay AID1226 (NMMLSC, 2008), this text covers translocation response score for 8 compounds.

Each structure is given as a SMILES string. Records with an inconclusive call do not appear. Calls of active or inactive are those of the source.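 Rule for the calls: active = score of 100, fluorescent reporter fully moved to nucleus as with estrogen, or estrogen effect fully blocked; inactive = score of 0 or 50, partial or no effect.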

Chain of Estrogen receptor (Homo sapiens) (P03372 whole entry, looked up): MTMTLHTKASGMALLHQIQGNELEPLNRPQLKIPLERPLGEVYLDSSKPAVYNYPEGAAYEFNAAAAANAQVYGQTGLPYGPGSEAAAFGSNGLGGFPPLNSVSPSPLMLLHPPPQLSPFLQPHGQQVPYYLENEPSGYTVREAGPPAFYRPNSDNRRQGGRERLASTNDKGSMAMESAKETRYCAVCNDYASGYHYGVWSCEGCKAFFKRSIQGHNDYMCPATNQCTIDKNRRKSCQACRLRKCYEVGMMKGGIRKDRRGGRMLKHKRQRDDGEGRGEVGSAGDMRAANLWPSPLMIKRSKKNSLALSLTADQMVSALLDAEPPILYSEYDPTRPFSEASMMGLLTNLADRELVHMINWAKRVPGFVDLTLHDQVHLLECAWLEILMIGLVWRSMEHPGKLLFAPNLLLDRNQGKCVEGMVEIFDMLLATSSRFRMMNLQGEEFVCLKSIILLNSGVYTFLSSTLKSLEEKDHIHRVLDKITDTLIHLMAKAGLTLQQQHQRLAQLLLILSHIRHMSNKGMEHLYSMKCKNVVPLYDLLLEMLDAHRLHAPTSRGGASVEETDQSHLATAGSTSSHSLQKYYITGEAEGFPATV

The assay has as its target Estrogen receptor (Homo sapiens) (UniProt P03372). The assay is described as follows: ERalpha agonist signaling via PH-RFP relocation – imaging, Cos7 ERalpha-GFP, PH-RFP reporter, orthogonal assay for ERalpha ligand project (AID 1226). The note with it: PIP3 nuclear translocation imaging, at 10 µM, hits give high values.
As to `COc1ccccc1N1CCN(C(=O)c2ccc3nc(-c4ccco4)c(-c4ccco4)nc3c2)CC1`, the translocation response score is 50 (inactive).
Regarding `O=C(O)c1cc(Cl)c2c(c1)[C@@H]1C=CC[C@@H]1[C@H](c1ccc(S(=O)(=O)N3CCOCC3)cc1)N2`, the translocation response score was 50 (inactive).
With `Nc1ncnc2c1ncn2C1CCC(CO)C(O)C1` (stereo not drawn), the translocation response score is 100.
As to `Brc1cc2c(cc1C1Nc3ccccc3C3C=CCC31)OCO2` (stereo not drawn), the translocation response score was 0 (inactive).
Under `COc1cccc(NS(=O)(=O)c2ccc3c(c2)C2C=CCC2C(c2ccc(C(=O)O)cc2)N3)c1` (stereo not drawn) stands 50 (inactive); under `Cc1cc(-c2nn3c(-c4ccccc4)nnc3s2)c2ccccc2n1`, 100.
For the compound `Cc1cc(C)c2c(c1)[C@@H]1C=CC[C@@H]1[C@H](c1ccc(S(=O)(=O)N3CCOCC3)cc1)N2`, the translocation response score is 100.
As to `O=C(O)c1ccc2c(c1)C1C(Cl)C(Sc3ccccc3[N+](=O)[O-])CC1C(c1cccc([N+](=O)[O-])c1)N2` (stereo not drawn), the translocation response score is 0 (inactive).
